The source of these data is PubChem BioAssay (NCI).

Where “and” joins values, the source holds several entries; their conditions need not be identical. Equal values may be shown once.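 All cell lines were grown in 96-well plates and treated with compound for 48 hours. GI50 is the concentration that inhibits growth by half. At the TGI there is no net growth.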

In general, TGI refers to the concentration giving total growth inhibition. As usually defined, the GI50 is the concentration at which growth is held to half of that of the control.

Test systems include COLO 205 colon; HT29 colon; IGROV1 ovarian; K-562 leukemia; NCI-H23 lung; RXF 393 renal; SNB-19 CNS; SW-620 colon; TK-10 renal; KM20L2 colon.
Holding throughout (assay): DTP human tumour cell line panel, 48 h

For the compound `COc1cc(C(=O)C2CC3(CCC2(O)c2cc(OC)c(OC)c(OC)c2)CC(=O)Nc2ccccc2C3=O)cc(OC)c1OC` (configuration not stated), the TGI in the test on COLO 205 colon is 62.6 µM; with HT29 colon, over 100 µM; in the test on IGROV1 ovarian, over 100 µM; with K-562 leukemia, over 100 µM; in the test with NCI-H23 lung, over 100 µM; in the test with RXF 393 renal it was over 100 µM. Besides, the TGI in the test on SNB-19 CNS, in the test with SW-620 colon and with TK-10 renal was over 100 µM in each case.

`Cc1c(C2=NN=C(N=Nc3c(O)cccc3O)/C2=C/c2ccccc2)c(=O)n(-c2ccccc2)n1C`: the TGI in the test on COLO 205 colon, in the test with HT29 colon, in the test with IGROV1 ovarian, in the test with K-562 leukemia, with KM20L2 colon and in the test on NCI-H23 lung was over 100 µM each time. For the same compound, the concentration for total growth inhibition (TGI) in the test on RXF 393 renal, in the test with SNB-19 CNS and in the test with SW-620 colon was over 100 µM throughout.

Consider `Nc1n[nH]c(CCCCCCCc2nc(N)n[nH]2)n1`, for which the TGI with HT29 colon, with K-562 leukemia, with NCI-H23 lung, in the test on RXF 393 renal, with SNB-19 CNS and with TK-10 renal was over 100 µM in each case.

For the compound `CC(C)=CCC/C(C)=C/CCC1(C)C=Cc2c(c3ccccc3oc2=O)O1` (configuration not stated), the TGI in the test on COLO 205 colon is 35.5 µM; in the test on HT29 colon, 33.7 µM; in the test with IGROV1 ovarian, 30.8 µM; in the test with K-562 leukemia it was over 89 µM; in the test with KM20L2 colon, 34 µM; with NCI-H23 lung, 28.9 µM. Besides, the results for the TGI in the test on RXF 393 renal, in the test on SNB-19 CNS and with SW-620 colon were 27.8 µM, 37.7 µM and 33.7 µM, respectively.

As to `CC1SC(c2ccc(Cl)cc2)N(CCc2cccs2)C1=O` (configuration not stated), the GI50 with COLO 205 colon is 1.63 µM; in the test on HT29 colon it was 1.48 µM; in the test on IGROV1 ovarian, 1.8 µM; in the test with NCI-H23 lung, 1.48 µM; in the test on RXF 393 renal, 1.56 µM; in the test on SNB-19 CNS, 1.65 µM. In addition, the GI50 in the test with SW-620 colon is 1.54 µM; with TK-10 renal it was 1.68 µM. For the same compound, the TGI stood at 3.02 µM in the test on COLO 205 colon; 3.14 µM with HT29 colon; 5.77 µM in the test on IGROV1 ovarian; 3.85 µM in the test on NCI-H23 lung; 2.94 µM in the test with RXF 393 renal; 3.31 µM with SNB-19 CNS. Further, the total growth inhibition concentration (TGI) in the test with SW-620 colon stood at 3.22 µM; in the test on TK-10 renal, 3.4 µM.

Take `O=C(O)CCCc1ccccc1`: the GI50 in the test with COLO 205 colon is 363 µM and > 1000 µM; in the test on HT29 colon, 221 µM and > 1000 µM; in the test with IGROV1 ovarian it was 412 µM and > 1000 µM; in the test with K-562 leukemia it was over 1000 µM; with NCI-H23 lung, 377 µM and > 1000 µM; in the test with RXF 393 renal, over 1000 µM. Further, the GI50 in the test with SNB-19 CNS is 537 µM and > 1000 µM; with SW-620 colon, 333 µM and > 1000 µM; in the test with TK-10 renal it was 285 µM and > 1000 µM. Further, the concentration for total growth inhibition (TGI) with COLO 205 colon was over 1000 µM; with HT29 colon it was over 1000 µM; with IGROV1 ovarian it was over 1000 µM; in the test on K-562 leukemia, 338 µM and > 1000 µM; with NCI-H23 lung, over 1000 µM; in the test with RXF 393 renal it was 604 µM and > 1000 µM. Further, the TGI in the test with SNB-19 CNS, in the test with SW-620 colon and with TK-10 renal was over 1000 µM throughout.

Take `COCCOCOC(C)(C)[C@H](CCO)O[Si](c1ccccc1)(c1ccccc1)C(C)(C)C`: the TGI in the test on COLO 205 colon worked out at 33.9 µM; in the test with HT29 colon, 21.4 µM; with IGROV1 ovarian, 22.9 µM; with KM20L2 colon, 24.4 µM; in the test on NCI-H23 lung, 35.9 µM; in the test on RXF 393 renal, 17.8 µM. The results for the TGI in the test on SNB-19 CNS, in the test on SW-620 colon and in the test with TK-10 renal were 31.7 µM, 25.2 µM and 23 µM, respectively.

On to `O=C(O)C12CC3CC(C1)C2C=C3P(=O)(O)O` (configuration not stated), for which the TGI in the test on COLO 205 colon, with HT29 colon, in the test with IGROV1 ovarian, in the test with K-562 leukemia, in the test with KM20L2 colon and with NCI-H23 lung was over 100 µM each time. Further, the TGI in the test with RXF 393 renal, in the test with SW-620 colon and in the test on TK-10 renal was over 100 µM in each case.

For the compound `O=C1c2ccccc2C(=O)c2c1cc1c(c2[N+](=O)[O-])OCO1`, the GI50 is 3.46 µM in the test with COLO 205 colon; 4.24 µM in the test on HT29 colon; 1.21 µM in the test on IGROV1 ovarian; 0.621 µM with K-562 leukemia; 2.4 µM with NCI-H23 lung; 0.506 µM in the test with RXF 393 renal. Besides, the GI50 in the test with SNB-19 CNS is 2.55 µM; with SW-620 colon it was 0.68 µM; with TK-10 renal, 2.38 µM. Further, the TGI in the test with COLO 205 colon worked out at 16.8 µM; with HT29 colon, 22 µM; in the test with IGROV1 ovarian, 7.62 µM; with K-562 leukemia, 6.26 µM; in the test with NCI-H23 lung, 8.29 µM; in the test with RXF 393 renal, 2.04 µM. Also, the TGI with SNB-19 CNS is 14.4 µM; in the test on SW-620 colon, 11.5 µM; with TK-10 renal it was 6.39 µM.

Turning to `c1ccc2cc3c(cc2c1)OP1(Oc2cccc4cccnc24)(O3)Oc2cc3ccccc3cc2O1`, the TGI was over 100 µM with COLO 205 colon; 12.6 µM with HT29 colon; over 100 µM in the test on IGROV1 ovarian; over 40.3 µM with K-562 leukemia; 20.3 µM with KM20L2 colon; 16.9 µM with NCI-H23 lung. Moreover, the values for the TGI in the test on RXF 393 renal, in the test with SNB-19 CNS and in the test on SW-620 colon were over 100 µM, over 100 µM and over 50.2 µM, respectively.

For the compound `COc1cc(/C=C/C2=C(C#N)C(=O)OC2(C)C)ccc1O`, the TGI in the test with COLO 205 colon, in the test on HT29 colon, in the test with IGROV1 ovarian, in the test with K-562 leukemia, in the test with KM20L2 colon and in the test on NCI-H23 lung was over 100 µM each time. Moreover, the TGI in the test on RXF 393 renal, in the test on SNB-19 CNS, in the test with SW-620 colon and in the test on TK-10 renal was over 100 µM in each case.
